Tests used:
[1] = target: Somatostatin receptor type 2 (Rattus norvegicus, UniProt P30680); assay: Displacement of [125I]SRIF14 from rat sst2 receptor from rat brain cortex membrane
[2] = target: Somatostatin receptor type 1 (Rattus norvegicus, UniProt P28646); assay: Displacement of [125I]SRIF14 from rat sst1 receptor from rat brain cortex membrane
[3] = Ratio of drug level in brain to plasma in mouse at 10 mg/kg, po after 1 hr; format: ADME, organism-based; set-up: dose 10 mg/kg, route oral; details: brain and plasma, read-out: BPR
Rattus norvegicus [4] = species: Rattus norvegicus; assay: Selectivity for rat sst1 receptor over rat sst2 receptor
[5] = Oral bioavailability in rat at 10 mg/kg; format: ADME, organism-based; details: in vivo
[6] = Ratio of drug level in brain to plasma in rat at 10 to 100 mg/kg, po after 90 mins; format: ADME, organism-based; set-up: dose 10-100 mg/kg, route oral; details: brain and plasma, read-out: BPR
Rattus norvegicus [7] = assay: Volume of distribution at steady state in rat at 10 mg/kg, po; format: ADME, organism-based; set-up: dose 10 mg/kg, route oral; details: in vivo
[8] = Clearance in rat at 10 mg/kg, po; format: ADME, organism-based; set-up: dose 10 mg/kg, route oral; details: in vivo

Sequence of Somatostatin receptor type 2 (P30680 whole entry): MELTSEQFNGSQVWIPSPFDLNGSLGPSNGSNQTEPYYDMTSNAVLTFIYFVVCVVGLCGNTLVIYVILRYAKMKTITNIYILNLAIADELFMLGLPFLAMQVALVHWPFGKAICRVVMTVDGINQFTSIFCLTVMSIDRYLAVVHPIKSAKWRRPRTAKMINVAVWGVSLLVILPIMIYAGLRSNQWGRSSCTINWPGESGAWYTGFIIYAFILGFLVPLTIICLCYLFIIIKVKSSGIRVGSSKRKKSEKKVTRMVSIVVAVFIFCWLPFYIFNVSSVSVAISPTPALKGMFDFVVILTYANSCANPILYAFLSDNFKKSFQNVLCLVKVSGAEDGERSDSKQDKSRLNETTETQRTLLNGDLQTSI
Sequence of Somatostatin receptor type 1 (P28646 whole entry): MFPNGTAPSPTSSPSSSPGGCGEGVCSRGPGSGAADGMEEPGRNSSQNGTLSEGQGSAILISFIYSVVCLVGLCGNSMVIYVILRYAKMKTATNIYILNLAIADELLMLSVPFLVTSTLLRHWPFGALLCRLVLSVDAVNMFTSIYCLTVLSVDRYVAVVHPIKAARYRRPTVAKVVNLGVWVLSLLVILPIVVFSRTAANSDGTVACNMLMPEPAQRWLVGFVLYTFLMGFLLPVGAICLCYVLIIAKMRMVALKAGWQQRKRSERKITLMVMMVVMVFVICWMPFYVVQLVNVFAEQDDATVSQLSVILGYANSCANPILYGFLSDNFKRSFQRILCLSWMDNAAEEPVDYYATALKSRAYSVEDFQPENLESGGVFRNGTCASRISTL

| Compound | Kd [1] | Kd [2] | also measured |
| --- | --- | --- | --- |
| COc1cccc2c1C[C@H]1C[C@@H](C(=O)N3CCN(c4ccncc4)CC3)CN(C)[C@@H]1C2 | 17.8 µM | 1.86 µM |  |
| COc1cccc2c1C[C@H]1C[C@@H](C(=O)N3CCN(c4ccccn4)CC3)CN(C)[C@@H]1C2 | 10.2 µM | 0.0174 µM |  |
| COc1cccc2c1C[C@H]1C[C@@H](C(=O)N3CCN(c4ccc5nccnc5n4)CC3)CN(C)[C@@H]1C2 | 14.1 µM | 0.00575 µM |  |
| COc1cccc2c1C[C@H]1C[C@@H](C(=O)N3CCCN(c4ccccn4)CC3)CN(C)[C@@H]1C2 | 34.7 µM | 0.209 µM |  |
| COc1cccc2c1C[C@H]1C[C@@H](C(=O)N3CCN(c4cccc(F)c4C#N)CC3)CN(C)[C@@H]1C2 | 16.6 µM | 0.00282 µM |  |
| COc1cccc2c1C[C@H]1C[C@@H](C(=O)N3CCN(c4ncccn4)CC3)CN(C)[C@@H]1C2 | 27.5 µM | 0.468 µM |  |
| COc1cccc2c1C[C@H]1C[C@@H](C(=O)N3CCN(c4cccc(F)c4)CC3)CN(C)[C@@H]1C2 | 21.4 µM | 0.00331 µM |  |
| COc1cccc2c1C[C@H]1C[C@@H](C(=O)N3CCN(c4cccc(=O)n4C)CC3)CN(C)[C@@H]1C2 | 11 µM | 0.00182 µM |  |
| COc1cccc2c1C[C@H]1C[C@@H](C(=O)N3CCN(c4cccc(=O)[nH]4)CC3)CN(C)[C@@H]1C2 | 11.7 µM | 0.00759 µM |  |
| COc1cccc2c1C[C@H]1C[C@@H](C(=O)N3CCN(c4ccc(F)cc4)CC3)CN(C)[C@@H]1C2 | 26.3 µM | 0.00339 µM |  |
| CCN(CC)C(=O)c1ccc(N2CCN(C(=O)[C@@H]3C[C@@H]4Cc5c(cccc5OC)C[C@H]4N(C)C3)CC2)cc1 | 20 µM | 1.7 µM |  |
| O=[As][As+](=O)[O-] (stereo not given) [ARSENIC TRIOXIDE] | 25.1 µM | 0.0525 µM |  |
| COC(=O)c1ccc(N2CCN(C(=O)[C@@H]3C[C@@H]4Cc5c(cccc5OC)C[C@H]4N(C)C3)CC2)cc1 | 14.8 µM | 0.162 µM |  |
| COc1cccc2c1C[C@H]1C[C@@H](C(=O)N3CCN(c4cccc(C(F)(F)F)c4)CC3)CN(C)[C@@H]1C2 | 13.2 µM | 0.0234 µM |  |
| COc1cccc2c1C[C@H]1C[C@@H](C(=O)N3CCN(c4ccc5nccn5n4)CC3)CN(C)[C@@H]1C2 | 20.9 µM | 0.0871 µM |  |
| COc1cccc2c1C[C@H]1C[C@@H](C(=O)N3CCN(c4ccc(O)cc4)CC3)CN(C)[C@@H]1C2 | 24.5 µM | 0.631 µM |  |
| COc1cccc2c1C[C@H]1C[C@@H](C(=O)N3CCN(c4ccc(C(N)=O)cc4)CC3)CN(C)[C@@H]1C2 | 16.6 µM | 1.51 µM |  |
| COc1cccc2c1C[C@H]1C[C@@H](C(=O)N3CCN(c4ccccc4F)CC3)CN(C)[C@@H]1C2 | 18.6 µM | 0.0178 µM |  |
| COc1cccc2c1C[C@H]1C[C@@H](C(=O)N3CCNCC3)CN(C)[C@@H]1C2 | 43.7 µM | 10.5 µM |  |
| COc1cccc2c1C[C@H]1C[C@@H](C(=O)N3CCCN(c4ccc([N+](=O)[O-])cc4)CC3)CN(C)[C@@H]1C2 | 22.4 µM | 0.263 µM |  |
| COc1cccc2c1C[C@H]1C[C@@H](C(=O)N3CCN(c4ccc([N+](=O)[O-])cc4C#N)CC3)CN(C)[C@@H]1C2 | 4.37 µM | 0.00324 µM |  |
| COc1cccc2c1C[C@H]1C[C@@H](C(=O)N3CCN(c4ccc(C(F)(F)F)cn4)CC3)CN(C)[C@@H]1C2 | 20 µM | 0.105 µM |  |
| COc1cccc2c1C[C@H]1C[C@@H](C(=O)N3CCN(c4ccc(C(=O)O)cc4)CC3)CN(C)[C@@H]1C2 | 251 µM | 81.3 µM |  |
| COc1cccc2c1C[C@H]1C[C@@H](C(=O)N3CCN(c4ccc(F)c(F)c4)CC3)CN(C)[C@@H]1C2 | 16.6 µM | 0.000741 µM | Kp at 1 h [3]: 7.5; Selectivity ratio (Rattus norvegicus [4]): > 22000 |

Continued by falling Kd [1], values first:

| Kd [1] | Kd [2] | Compound | also measured |
| --- | --- | --- | --- |
| 11 µM | 0.00129 µM | COc1cccc2c1C[C@H]1C[C@@H](C(=O)N3CCN(c4ccccc4[N+](=O)[O-])CC3)CN(C)[C@@H]1C2 |  |
| 10.5 µM | 0.562 µM | COc1cccc2c1C[C@H]1C[C@@H](C(=O)N3CCN(c4ncccc4OS(=O)(=O)C(F)(F)F)CC3)CN(C)[C@@H]1C2 |  |
| 10.2 µM | 0.00355 µM | COc1cccc2c1C[C@H]1C[C@@H](C(=O)N3CCN(c4ccc(C#N)cn4)CC3)CN(C)[C@@H]1C2 |  |
| 10 µM | 0.00275 µM | COc1cccc2c1C[C@H]1C[C@@H](C(=O)N3CCN(c4cccc5nsnc45)CC3)CN(C)[C@@H]1C2 |  |
| 10 µM | 0.00813 µM | COc1cccc2c1C[C@H]1C[C@@H](C(=O)N3CCN(c4ccc(C#N)cc4)CC3)CN(C)[C@@H]1C2 |  |
| 9.12 µM | 0.589 µM | COc1cccc2c1C[C@H]1C[C@@H](C(=O)N3CCN(c4ccc(S(N)(=O)=O)cc4)CC3)CN(C)[C@@H]1C2 |  |
| 9.12 µM | 0.457 µM | COc1cccc2c1C[C@H]1C[C@@H](C(=O)N3CCN(Cc4ccccc4)CC3)CN(C)[C@@H]1C2 |  |
| 8.71 µM | 0.151 µM | COc1cccc2c1C[C@H]1C[C@@H](C(=O)N3CCN(c4ccc(C(C)=O)cc4)CC3)CN(C)[C@@H]1C2 |  |
| 8.71 µM | 0.631 µM | COc1cccc2c1C[C@H]1C[C@@H](C(=O)N3CCN(c4ccc(S(C)(=O)=O)cc4)CC3)CN(C)[C@@H]1C2 |  |
| 7.76 µM | 0.000708 µM | COc1cccc2c1C[C@H]1C[C@@H](C(=O)N3CCN(c4ccc([N+](=O)[O-])cc4)CC3)CN(C)[C@@H]1C2 [OBELIN] | bioavailability [5]: 35%; Selectivity ratio (Rattus norvegicus [4]): > 10000; Kp at 1.5 h [6]: 10; Vdss (Rattus norvegicus [7]): 3 L/kg; CL/F [8]: 5 mL/min |
| 7.41 µM | 0.002 µM | COc1cccc2c1C[C@H]1C[C@@H](C(=O)N3CCN(c4ccccc4C#N)CC3)CN(C)[C@@H]1C2 |  |
| 7.08 µM | 0.355 µM | COc1cccc2c1C[C@H]1C[C@@H](C(=O)N3CCN(c4cc5nccnc5cn4)CC3)CN(C)[C@@H]1C2 |  |
| 6.76 µM | 0.00132 µM | COc1cccc2c1C[C@H]1C[C@@H](C(=O)N3CCN(c4cccc([N+](=O)[O-])c4)CC3)CN(C)[C@@H]1C2 |  |
| 6.61 µM | 0.105 µM | COc1cccc2c1C[C@H]1C[C@@H](C(=O)N3CCN(c4cccc(OCc5ccccc5)n4)CC3)CN(C)[C@@H]1C2 |  |
| 6.17 µM | 0.0708 µM | COc1cccc2c1C[C@H]1C[C@@H](C(=O)N3CCc4c([nH]c5ccccc45)C3)CN(C)[C@@H]1C2 |  |
| 5.75 µM | 0.00123 µM | COc1cccc2c1C[C@H]1C[C@@H](C(=O)N3CCN(c4ccc5nsnc5n4)CC3)CN(C)[C@@H]1C2 | Kp at 1 h [3]: 1.8; Selectivity ratio (Rattus norvegicus [4]): > 4600 |

| Kd [1] | Kd [2] | Compound | also measured |
| --- | --- | --- | --- |
| 5.5 µM | 0.0871 µM | COc1cccc2c1C[C@H]1C[C@@H](C(=O)N3CCN(c4cccc5ccccc45)CC3)CN(C)[C@@H]1C2 |  |
| 5.5 µM | 0.288 µM | COc1cccc2c1C[C@H]1C[C@@H](C(=O)N3CCN(c4cc5ccccc5cn4)CC3)CN(C)[C@@H]1C2 |  |
| 5.25 µM | 0.00871 µM | COc1cccc2c1C[C@H]1C[C@@H](C(=O)N3CCN(c4cccc5ccc(C#N)cc45)CC3)CN(C)[C@@H]1C2 |  |
| 5.25 µM | 0.692 µM | COc1cccc2c1C[C@H]1C[C@@H](C(=O)N3CCN(c4cc(C)nc5ccccc45)CC3)CN(C)[C@@H]1C2 |  |
| 5.25 µM | 0.00174 µM | COc1cccc2c1C[C@H]1C[C@@H](C(=O)N3CCN(c4ccc([N+](=O)[O-])cc4S(C)(=O)=O)CC3)CN(C)[C@@H]1C2 |  |
| 5.13 µM | 0.275 µM | COc1cccc2c1C[C@H]1C[C@@H](C(=O)N3CCN(c4ccc(C(F)(F)F)cc4)CC3)CN(C)[C@@H]1C2 |  |
| 4.9 µM | 0.11 µM | COc1cccc2c1C[C@H]1C[C@@H](C(=O)N3CCN(c4ccc(C(F)(F)F)cc4[N+](=O)[O-])CC3)CN(C)[C@@H]1C2 |  |
| 4.27 µM | 0.0107 µM | COc1cccc2c1C[C@H]1C[C@@H](C(=O)N3CCN(c4ccc5nsnc5c4)CC3)CN(C)[C@@H]1C2 | Kp at 1 h [3]: 4.8 |
| 3.63 µM | 0.00363 µM | COc1cccc2c1C[C@H]1C[C@@H](C(=O)N3CCN(c4cccc5nonc45)CC3)CN(C)[C@@H]1C2 |  |
| 3.47 µM | 0.0017 µM | COc1cccc2c1C[C@H]1C[C@@H](C(=O)N3CCN(c4ccc5nonc5c4)CC3)CN(C)[C@@H]1C2 |  |
| 2.51 µM | 0.0813 µM | COc1cccc2c1C[C@H]1C[C@@H](C(=O)N3CC=C(c4ccc(Cl)cc4)CC3)CN(C)[C@@H]1C2 |  |
| 2.4 µM | 0.49 µM | COc1cccc2c1C[C@H]1C[C@@H](C(=O)N3CC=C(c4ncccn4)CC3)CN(C)[C@@H]1C2 |  |
| 2.34 µM | 0.0302 µM | COc1cccc2c1C[C@H]1C[C@@H](C(=O)N3CC=C(c4ccccn4)CC3)CN(C)[C@@H]1C2 |  |
| 2.09 µM | 0.0275 µM | COc1cccc2c1C[C@H]1C[C@@H](C(=O)N3CCN(c4ccc5ccccc5n4)CC3)CN(C)[C@@H]1C2 |  |
| 2.04 µM | 0.49 µM | COc1cccc2c1C[C@H]1C[C@@H](C(=O)N3CCC(n4c(=O)[nH]c5ccccc54)CC3)CN(C)[C@@H]1C2 |  |

— ChEMBL document CHEMBL1139995, “SAR of the arylpiperazine moiety of obeline somatostatin sst1 receptor antagonists” (Bioorg Med Chem Lett, 2007)
